Tested on: pluripotent stem cells
Assay: Differentiation of pluripotent stem cells into CD34+CD45+ hematopoietic stem cells (FACS)
Type: cell-based
Source text: 1) Pluripotent stem cells were adapted to a matrigel-coated dish and a mTeSR1 medium for 3 weeks, and then other colonies except for 5 colonies in 35 pi dish were removed by pipetting. This is a process for providing space for the proliferation of differentiated cells in the future. At this time, when vitronectin is used as a coating material or mTeSR8 is used as a medium, the differentiation of hematopoietic stem cells or macrophages can be induced.
2) The medium for culturing the stem cells used in 1) above was replaced with APEL medium. […] The differentiation into mesodermal cells was induced rapidly by treating with BMP4 at a high concentration (100 ng/ml) for 2 days and then sequentially at a low concentration (20 ng/ml) for 2 days.
In addition, the efficiency of differentiation of hematopoietic stem cells can be increased by treating with the CDDO methyl ester compound together with BMP4 for 4 days. […]
CD34+ and CD45+ are markers specifically expressed in hematopoietic stem cells. […] In order to confirm this, the amount of expression of the markers specifically expressed in hematopoietic stem cells was measured.
The differentiated cells were monolayered and reacted with the antibodies CD34 and CD45 labeled with fluorescence. […]

COC(=O)[C@]12CCC(C)(C)C[C@H]1[C@H]1C(=O)C=C3[C@@]4(C)C=C(C#N)C(=O)C(C)(C)[C@@H]4CC[C@@]3(C)[C@]1(C)CC2 [CDDO methyl ester, 2-cyano-3,12-dioxooleana-1,9(11)-dien-28-oic acid methyl ester]
efficiency of differentiation of hematopoietic stem cells, increase (50 nM added together with BMP4 for 4 days, versus no CDDO methyl ester, FIG. 4): about 3 times
yield of hematopoietic stem cells (further treating with the compound in the BMP4 treatment step): improved by three times or more

Source: patent US20200131476A1, “Differentiation Of Immunocytes Using Pluripotent Stem Cells” (Korea Center For Disease Control And Prevention, priority 2017, published 2020)
